From patent US7498406B2, “Substantially cell membrane impermeable compound and use thereof” (priority 1999, dated 2009)

How the values were obtained:
[1] = test system: Lewis lung tumours; test: Tumour growth in mice, subcutaneous administration; format: in vivo, C57Bl6/J mice; details: 10 mg per kg per day; for inhibition of the rate of Lewis lung tumour growth: subcutaneous
Procedure: FIG. 25. Inhibition of human fibrosarcoma and murine Lewis lung tumour growth following systemic administration of GSAO. HT1080 or Lewis lung tumours were established in the proximal midline of female 7 to 9 week old SCID or C57Bl6/J mice, respectively. When the tumours were ˜0.1 cm^3 in volume the mice were randomised into two groups (n=5) and treated with either GSAA or GSAO at a dose of 10 mg per kg per day in 0.2 mL of PBS containing 100 mM glycine. The compounds were administered subcutaneously at a site distant from the tumour. Tumour volume and animal weight was measured every 3 days. The GSAO/GSAA HT1080 tumour volume ratio at day 17 of treatment was 0.29 (part A). The GSAO/GSAA Lewis lung tumour volume ratio at day 12 of treatment was 0.29 (part B). The data points and errors represent the mean and SE of the tumour volumes.
Female 7 to 9 week old SCID or C57Bl6/J mice were used (Massachusetts General Hospital, Boston, Mass.). Mice were held in groups of 3 to 5 at a 12 hour day and night cycle and were fed with animal chow and water ad libidum. SCID mice were anaesthetised by inhalation of isoflurane, the dorsal skin shaved and cleaned with ethanol, and a suspension of 2.5×10^6 BxPC-3 or HT1080 cells in 0.2 mL of DMEM was injected subcutaneously in the proximal midline. C57Bl6/J mice with Lewis lung carcinomas of 0.6-1.2 cm^3 volumes were sacrificed and the skin overlying the tumour was cleaned with betadine and ethanol. Tumour tissue was excised under aseptic conditions and a suspension of tumour cells in 0.9% saline was made by passage of tumour tissue through a sieve and a series of sequentially smaller 22- to 30-gauge hypodermic needles. C57Bl6/J mice were anaesthetised and prepared as for SCID mice and a suspension of Lewis lung carcinoma cells in 0.2 mL of saline was injected subcutaneously in the proximal midline. […] The tumours were measured in two diameters and tumour volume was calculated using the relationship, tumour volume=a×b^2×0.52, where a is the longest and b the shortest diameters in cm. […] Tumour volume and animal weight was measured every 3 days. […]

[2] = test system: BCE; test: Proliferation of cultured cells, 72 hr; format: cell-based, bovine; details: for IC50: 72 hr
Procedure: FIG. 18. Inhibition of proliferation and reduction in viability of BCE cells by GSAO. 15,000 (part A and B) or 50,000 (part C and D) BCE cells per well were seeded into gelatinised 24-well culture plates and allowed to attach for 24 hr (part A, B and D) or 72 hr (part C). The media was then replaced with DMEM containing 5% BCS and 0 to 1 mM GSAO or GSAA and either 1 ng per mL FGF-2 (part A) or 10 ng per mL VEGF (part B). In part D, the media was replaced with DMEM containing 5% BCS and 1 ng per mL FGF-2 and either 10 μM GSAO or GSAA. In part C, the media was replaced with DMEM containing 5% BCS and 0 to 1 mM GSAO or GSAA. Cells were cultured for 72 hr in parts A, B and C or for discrete times up to 48 hr in part D and then dispersed and counted. The dotted line in parts A, B and C indicate the cell number in control wells containing DMEM and 5% BCS which represented no to limited proliferation. The dotted line in part D represents no change in cell number over the 48 hr. The data points and errors represent the mean and range of duplicate wells.
BCE (Folkman et al. 1979), BAE, BxPC-3 (ATCC, Bethesda, Md.), HT1080 (Jiang et al., 1999), 3T3 (ATCC, Bethesda, Md.) and BVSM (Hogg et al., 1997) cells were harvested and cultured as indicated. Cells (0.5 mL of 30,000 or 100,000 cells per mL) were seeded into gelatinized 24-well culture plates (Corning Costar, Corning, N.Y.) in Dulbecco's Modified Eagle's Medium (DMEM, JHR Bioscience, Lenexa, Kans.) containing 10% fetal calf serum (FCS, Intergen Comp., Purchase, N.Y.) and 1% Glutamine Pen-Strep (GPS, Irvine Scientific, Santa Ana, Va.) and allowed to attach for 24 hr in 10% CO2 at 37° C. […] Cells were cultured for 0 to 72 hr in 10% CO2 at 37° C. then dispersed in trypsin/EDTA (GibcoBRL, Granc Island, N.Y.), resuspended in Coulter balanced electrolyte solution and counted with a Z1 Coulter counter (Coulter Corp., Miami, Fla.) in all experiments there were two control wells containing DMEM with 1% GPS and either 5% BCS for BCE cells, 2% BCS for BAE and BVSM cells, or 2% FCS for BxPC-3, HT1080 and 3T3 cells. […]

[3] = test system: 3T3; test: Viability of cultured cells, 72 hr; format: cell-based, murine; details: 0 to 1 mM
Procedure: FIG. 19. Effect of GSAO on proliferation of non-endothelial cells. 15,000 BxPC-3 (part A), HT1080 (part B), 3T3 (part C) or BVSM (part D) cells per well were seeded into gelatinised 24-well culture plates and allowed to attach for 24 hr. The media was then replaced with DMEM containing 0 to 1 mM GSAO or GSAA and either 5% BCS (part D) or 5% FCS (parts A, B and C). Cells were cultured for 72 hr and then dispersed and counted. The dotted lines indicate the cell number in control wells containing DMEM and 2% BCS (part D) or 2% FCS (parts A, B and C) which represented no to limited proliferation. The data points and errors represent the mean and range of duplicate wells.
BCE (Folkman et al. 1979), BAE, BxPC-3 (ATCC, Bethesda, Md.), HT1080 (Jiang et al., 1999), 3T3 (ATCC, Bethesda, Md.) and BVSM (Hogg et al., 1997) cells were harvested and cultured as indicated. […] Cells were cultured for 0 to 72 hr in 10% CO2 at 37° C. then dispersed in trypsin/EDTA (GibcoBRL, Granc Island, N.Y.), resuspended in Coulter balanced electrolyte solution and counted with a Z1 Coulter counter (Coulter Corp., Miami, Fla.) in all experiments there were two control wells containing DMEM with 1% GPS and either 5% BCS for BCE cells, 2% BCS for BAE and BVSM cells, or 2% FCS for BxPC-3, HT1080 and 3T3 cells. […]

N[C@@H](CCC(=O)N[C@@H](CSCC(=O)Nc1ccc([As](=O)(O)O)cc1)C(=O)NCC(=O)O)C(=O)O [GSAA, 4-(N-(S-glutathionylacetyl)amino)phenylarsonic acid, reference compound]
inhibition of the rate of Lewis lung tumour growth [1]: no effect
effect on proliferation of BCE cells ([2]; highest concentration used, 1 mM): only a marginal effect on proliferation
Viability IC50 ([3]; 5% FCS): no significant effect

NC(CCC(=O)NC(CSCC(=O)Nc1ccc([As]=O)cc1)C(=O)NCC(=O)O)C(=O)O (centres unmarked) [GSAO, 4-(N-(S-glutathionylacetyl)amino)-phenylarsenoxide]
inhibition of the rate of Lewis lung tumour growth [1]: ~70%
GSAO/GSAA Lewis lung tumour volume ratio ([1]; day 12 of treatment): 0.29
IC50 ([2]; 5% BCS + 1 ng/mL FGF-2): ~100 nM
IC50 ([2]; 5% BCS + 10 ng/mL VEGF): ~50 nM
IC50 ([3]; Mus musculus, NIH3T3, 5% FCS): ~40000 nM
